Measured values taken from the supplement of paper PMC9663587.

How the values were obtained:
[1] = compound: CN(C)C(=O)c1cc2cnc(Nc3ccc(N4CCNCC4)cn3)nc2n1C1CCCC1 [LEE011/Ribociclib]
[2] = compound: CC(=O)c1c(C)c2cnc(Nc3ccc(N4CCN(CCOCCOCCOCCNC(=O)COc5cccc6c5C(=O)N(C5CCC(=O)NC5=O)C6=O)CC4)cn3)nc2n(C2CCCC2)c1=O [BSJ-03-123]
[3] = compound: NC(=O)Nc1cc(-c2cccc(F)c2)sc1C(=O)N[C@H]1CCCNC1 [AZD7762]
[4] = compound: Cc1cc(Nc2ncc(Cl)c(Nc3ccccc3S(=O)(=O)C(C)C)n2)c(OC(C)C)cc1C1CCNCC1 [Ceritinib/LDK378]
[5] = compound: Nc1cc(C(F)(F)F)c(-c2cc(N3CCOCC3)nc(N3CCOCC3)n2)cn1 [Buparlisib/NVP-BKM120]
[6] = compound: CO[C@@H](C)Cn1c(=O)n(C)c2cnc3ccc(-c4cncc(C(C)(C)O)c4)cc3c21
[7] = compound: Cc1nc(NC(=O)N2CCC[C@H]2C(N)=O)sc1-c1ccnc(C(C)(C)C(F)(F)F)c1 [Alpelisib/BYL719]
[8] = compound: CNc1nc(-c2ccc3c(N)n[nH]c3c2)cc(N2C[C@@H](C(=O)NC3CCCCC3)CC[C@H]2C)n1
[9] = compound: CS(=O)(=O)N1CCN(Cc2cc3nc(-c4cccc5[nH]ncc45)nc(N4CCOCC4)c3s2)CC1 [Pictilisib/GDC0941]
[10] = compound: CC(C)Nc1cc(-c2c[nH]c(C(=O)N[C@H](CO)c3cccc(Cl)c3)c2)c(Cl)cn1 [BVD523]
[11] = compound: Cc1nn(C)c(COc2ccc(N3CCN(S(=O)(=O)N(C)C)CC3)cc2)c1-c1cccc2c(CCCOc3cccc4ccccc34)c(C(=O)O)n(CCN3CCOCC3)c12
[12] = compound: CC1(CCN(CC1)C2=CN=C(C(=N2)N)C3=C(C(=CC=C3)Cl)Cl)N [SHP099]
[13] = compound: COc1cc2c(Oc3ccc4[nH]c(C)cc4c3F)ncnc2cc1OCCCN1CCCC1 [Cediranib/AZD2171]
[14] = compound: CC[C@@H]1C(=O)N(C)c2cnc(Nc3ccc(C(=O)N[C@H]4CC[C@H](N5CCN(CC6CC6)CC5)CC4)cc3OC)nc2N1C(C)C [Volasertib/BI6727]
[15] = compound: CCc1cnn2c(NCc3ccc[n+]([O-])c3)cc(N3CCCC[C@H]3CCO)nc12
[16] = compound: C1=CC2=C(C=CC(=C2)C=C3C(=O)NC(=NCC4=CC=CS4)S3)N=C1 [R0-3306]
[17] = compound: COc1cc2nccc(Oc3ccc(NC(=O)C4(C(=O)Nc5ccc(F)cc5)CC4)cc3)c2cc1OC [Cabozantinib]
[18] = compound: CCC1=CN=CN=C1N2CCN(CC2)CC3=NC4=C(N3)C=C(C=C4)C(F)(F)F
[19] = compound: CN1CCN(C(=O)c2ccc3cc(CCNc4ncnc5ccc(C#N)cc45)ccc3c2)CC1 [senexin b]
[20] = compound: Cc1nc(Nc2ncc(C(=O)Nc3c(C)cccc3Cl)s2)cc(N2CCN(CCO)CC2)n1 [Dasatinib]
[21] = compound: O=C1NC(=O)[C@@H](c2cn3c4c(cccc24)CCC3)[C@@H]1c1c[nH]c2ccccc12 [Tivantinib/ARQ197]
[22] = compound: CN(C)C/C=C/C(=O)Nc1ccc(C(=O)Nc2cccc(Nc3ncc(Cl)c(-c4c[nH]c5ccccc45)n3)c2)cc1 [THZ1]
[23] = compound: CN1CCN(CCOc2cc(OC3CCOCC3)c3c(Nc4c(Cl)ccc5c4OCO5)ncnc3c2)CC1 [Saracatinib/AZD0530]
[24] = compound: CNCc1ccc(-c2[nH]c3cc(F)cc4c3c2CCNC4=O)cc1 [Rucaparib]
[25] = compound: CC(C)n1nc(-c2ccc3oc(N)nc3c2)c2c(N)ncnc21 [INK128/MLN0128]
[26] = compound: CNC(=O)c1cccc(-c2ccc3c(N4CCOC[C@@H]4C)nc(N4CCOC[C@@H]4C)nc3n2)c1 [AZD2014]
[27] = compound: CCCCOc1c(C(=O)c2c(F)cc(C)cc2F)c[nH]c2nncc1-2
[28] = compound: COc1ccc2c(c1)[C@]1(C[C@H]1c1ccc3c(/C=C/c4ccc(CN5C[C@@H](C)O[C@@H](C)C5)cc4)n[nH]c3c1)C(=O)N2
[29] = compound: CC(=O)c1c(C)c2cnc(Nc3ccc(N4CCNCC4)cn3)nc2n(C2CCCC2)c1=O
[30] = compound: C=CCn1c(=O)c2cnc(Nc3ccc(N4CCN(C)CC4)cc3)nc2n1-c1cccc(C(C)(C)O)n1 [AZD1775]
[31] = compound: CCOc1cc2ncc(C#N)c(Nc3ccc(OCc4ccccn4)c(Cl)c3)c2cc1NC(=O)/C=C/CN(C)C [Neratinib/HKI272]
[32] = compound: CN(C)C/C=C/C(=O)NC1=CC=C(C=C1)C(=O)NC2=CC=CC(=C2)NC3=NC=NC(=C3)C4=CNC5=CC=CC=C54 [THZ-P1-2]
[33] = compound: C1=CC(=CC(=C1)N2C(=O)C=CC3=CN=C4C=CC(=CC4=C32)C5=CN=C(C=C5)N)C(F)(F)F [Torin2]
[34] = compound: O=C(CCCCCCC(=O)Nc1ccccc1)NO [Vorinostat]
[35] = compound: NC1(C(=O)N[C@@H](CCO)c2ccc(Cl)cc2)CCN(c2nc[nH]c3nccc2-3)CC1 [AZD5363]
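Further: breast cancer and non-malignant breast epithelial cell lines, Deep Dye Drop or Dye Drop imaging, nine half-log doses, GR normalized to time-zero plates and DMSO-only controls.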

| Cell Line | GR50, 72 h [1] [µM] | GR50, 72 h [2] [µM] | GR50, 72 h [3] [µM] | GR50, 72 h [4] [µM] | GR50, 72 h [5] [µM] | GR50, 72 h [6] [µM] | GR50, 72 h [7] [µM] | GR50, 72 h [8] [µM] | GR50, 72 h [9] [µM] | GR50, 72 h [10] [µM] | GR50, 72 h [11] [µM] | GR50, 72 h [12] [µM] | GR50, 72 h [13] [µM] | GR50, 72 h [14] [µM] | GR50, 72 h [15] [µM] | GR50, 72 h [16] [µM] | GR50, 72 h [17] [µM] | GR50, 72 h [18] [µM] | GR50, 72 h [19] [µM] | GR50, 72 h [20] [µM] | GR50, 72 h [21] [µM] | GR50, 72 h [22] [µM] | GR50, 72 h [23] [µM] | GR50, 72 h [24] [µM] | GR50, 72 h [25] [µM] | GR50, 72 h [26] [µM] | GR50, 72 h [27] [µM] | GR50, 72 h [28] [µM] | GR50, 72 h [29] [µM] | GR50, 72 h [30] [µM] | GR50, 72 h [31] [µM] | GR50, 72 h [32] [µM] | GR50, 72 h [33] [µM] | GR50, 72 h [34] [µM] | GR50, 72 h [35] [µM] |
| --- | --- | --- | --- | --- | --- | --- | --- | --- | --- | --- | --- | --- | --- | --- | --- | --- | --- | --- | --- | --- | --- | --- | --- | --- | --- | --- | --- | --- | --- | --- | --- | --- | --- | --- | --- |
| HCC70 | > 10 | 4.15 | 0.0412 | 3.19 | 0.437 | 0.00263 | 4.51 | 1.27 | 0.161 | 1.11 | > 10 | > 10 | 4.54 | 0.0066 | 0.0129 | 4.53 | 1.54 | > 10 | > 10 | 0.00964 | 0.335 | 0.0148 | 0.0644 | > 10 | 0.0048 | < 0.001 | 0.00336 | 0.00349 | > 3.16 | < 0.001 | 0.16 | 3.18 | 0.00585 | 0.413 | 0.0256 |
| EVSAT | > 10 | 3.31 | 1.42 | 6.18 | 1.04 | 0.00155 | > 10 | 1.77 | 0.621 | > 10 | > 10 | > 10 | 9.9 | 0.00932 | 0.0263 | 5.54 | > 10 | > 10 | > 10 | 0.166 | 0.373 | 0.0571 | 2.69 | > 10 | 0.0112 | 0.00617 | 1.45 | 0.00784 | > 3.16 | 3.96 | > 3.16 | > 10 | 0.015 | 2.5 | 0.0128 |
| HCC1395 | 3.67 | 1.12 | 0.0217 | 1.6 | 0.93 | 0.00497 | > 10 | > 10 | 1.43 | 1.72 | > 10 | > 10 | 1.59 | 0.00321 | 0.0124 | 0.463 | 5.55 | > 10 | 5.9 | 0.0748 | 0.481 | 0.022 | 3.76 | 0.957 | 0.0108 | 0.0101 | 0.00575 | 0.00377 | 0.0952 | 0.00604 | 0.958 | 2.89 | 0.0146 | 3.27 | 0.135 |
| HCC1806 | > 10 | 2.56 | 0.0166 | 2.14 | 1.05 | 0.347 | > 10 | > 10 | 5.87 | > 10 | > 10 | > 10 | 4.93 | 0.0028 | 0.0134 | 5.39 | > 10 | > 10 | > 10 | 0.0537 | 0.272 | 0.0688 | 1.73 | > 10 | 0.0524 | 1.82 | 0.278 | 0.00322 | > 3.16 | 0.0128 | 0.78 | 4.69 | 0.0358 | 1.13 | > 10 |
| MDAMB468 | > 10 | 1.71 | 0.287 | 0.767 | 0.832 | 0.0123 | > 10 | > 10 | 2.33 | 1.64 | > 10 | > 10 | 3.92 | 0.0021 | 0.0156 | 4.57 | 8.97 | 4.17 | 2.04 | 4.41 | 0.307 | 0.0236 | 4.96 | 8.56 | 0.0235 | 0.523 | 0.133 | 0.00342 | > 3.16 | 0.25 | 0.158 | 3.59 | 0.016 | 1.57 | > 10 |
| HCC1419 | > 10 | 0.491 | 0.0686 | 2.61 | 0.396 | < 0.001 | 0.669 | 7.64 | 0.172 | > 10 | > 10 | > 10 | 5.06 | 0.0207 | 0.0267 | 8.88 | > 10 | 5.28 | 10 | 0.825 | 0.473 | 0.0611 | 0.916 | > 10 | 0.00475 | < 0.001 | 0.65 | 0.00375 | 0.462 | 2.59 | 0.00115 | 6.2 | 0.0055 | 1.8 | > 10 |
